“Also recorded” adds a separate entry of the source.
Assays:
mice = assay: Object recognition, visual paired comparison task (VPC); assay type: in vivo
Protocol: Each mouse receiving either apigenin 25 mg/kg or Tween 80:0.9% NaCl (control) solutions was administered an i.p. injection of either drug or control for 7 days, after which they were trained and tested on visual paired comparison task (VPC) behavioral assay. The paradigm consisted of habituation to the experimental room for two hours prior to the experiment on Days 1 and 2. After habituation on Day 1, mice were given a five minute exposure to the testing chamber, followed by a thirty second exploration of two identical objects (familiarization training). Twenty-four hours after the familiarization training, mice were once again re-habituated to the room and testing chamber for two hours and one minute, respectively. After re-habituation mice were placed back into the testing chamber and allowed to explore a familiar and novel object for five minutes. Object exploration times were measured for both familiar and novel objects on Days 1 and 2. Both objects were identical, but the “novel” object was in a different location.

dentate gyrus [1] = assay: BrdU/DAB quantification of dividing cells in the dentate gyrus after long-term study; assay type: in vivo, mice; conditions: for number of dividing cells (BrdU+) in the dentate gyrus: 25 mg/kg i.p. 42 days; for number of dividing cells (BrdU+) in the dentate gyrus, overall statement: running and non-running groups
Protocol: Injections were administered intraperitoneally (i.p.) for forty-two days total. In addition to test injections, daily i.p. injections of 5-bromo-2-deoxyuridine (BrdU) [10 mg/ml] were administered for the first eight days at a dose of 50 mg/kg. Within each test group, eight mice were randomly selected to receive running exercise. These thirty-two mice (eight mice per injection group) were transferred daily (on Days 1-40 of the study) from their normal static housing to an automated voluntary running wheel cage for two hours a day. Non-running mice remained in their static cages throughout the study. After the long-term study of Example 1 and all behavioral testing was concluded (Day 42), mice were perfused using 4% paraformaldehyde and their brain tissue was extracted. Brain tissue was sectioned and stained for BrdU/DAB quantification of dividing cells. A second immunofluorescence stain was used for phenotyping of the newly dividing cells. Brain sections were also taken and stained with Brdu/NeuN/GFAP. Phenotype analysis was completed to determine the percentage of dividing cells co-labeled with NeuN, a marker used to identify mature neurons. Using the percentage, it was possible to calculate the total number of BrdU/NeuN co-labeled cells in the dentate gyrus.

dentate gyrus [2] = assay: BrdU/NeuN/GFAP phenotyping of newly dividing cells (neurogenesis) in the dentate gyrus; assay type: in vivo, mice; conditions: for number of BrdU+ cells co-labeled with NeuN (new neurons) in the dentate gyrus: 25 mg/kg i.p. 42 days, runners, vs all other groups, p<0.001
Text: After the long-term study of Example 1 and all behavioral testing was concluded (Day 42), mice were perfused using 4% paraformaldehyde and their brain tissue was extracted. Brain tissue was sectioned and stained for BrdU/DAB quantification of dividing cells. A second immunofluorescence stain was used for phenotyping of the newly dividing cells. Brain sections were also taken and stained with Brdu/NeuN/GFAP. Phenotype analysis was completed to determine the percentage of dividing cells co-labeled with NeuN, a marker used to identify mature neurons. Using the percentage, it was possible to calculate the total number of BrdU/NeuN co-labeled cells in the dentate gyrus.

NeuroD = NeuroD luciferase reporter assay; assay type: cell-based; conditions: 5 mM apigenin; cells first allowed to proliferate with FGF2 for twenty-four hours; 2-day treatment
Protocol: Adult neural progenitor cells were plated in N2 media containing FGF2 for twenty-four hours. See Bottenstein et al., Growth of a rat neuroblastoma cell line in serum-free supplemented medium, Proc. Natl. Acad. Sci. USA 76(1) (1979) (describing components of N2 media).
The cells were replaced with fresh N2 media (without FGF2) and apigenin was added. In all experiments, 5 mM apigenin dissolved in DMSO was used. As a positive control for neuronal differentiation, N2 media containing retinoic acid (RA) and forskolin (FSK) was used. As a negative control, N2 media and the equivalent amount of DMSO or N2 was used. Either a NeuroD luciferase reporter assay (purchased from Promega, cat. No. e-1980, Dual-Luciferase Reporter 1000 Assay System) was performed two days later or immunohistochemistry was performed four days later. […]

b-catenin = assay: Western blot of phosphorylated signaling mediators; assay type: cell-based; conditions: adult neural progenitor cells; negative controls show the same results
Protocol: (§1) Adult neural progenitor cells were grown in proliferating conditions (N2 containing FGF2) in six-well plates for at least twenty-four hours. Before collecting cell lysates, the media was removed and replaced with DMEM/F12 for two hours (DMEM/F12 is defined media which lacks insulin and FGF2, two factors known to trigger various cell signaling pathways). In this key “starvation” step, the activation of various downstream mediators returned to steady-state levels. Cells were starved for two hours and the time zero data were collected. One of the following was added and the lysates collected at various time-points: (1) N2 only or (−) DMSO (negative control); (2) (+) DMSO (also a negative control); (3) apigenin; or (4) RA+FSK (positive control). Two time-course experiments were then carried out. The first was an early time-course to measure the acute effects of apigenin at zero minutes, ten minutes, thirty minutes, two hours, six hours, and twenty-four hours. The second experiment was a late time-course to measure long-term effects of apigenin at zero, one, two, three, and four days; the results of this experiment are not discussed here. Cell lysates were then loaded and transferred to Western Blots and the membranes hybridized with antibodies against the phosphorylated and unphosphorylated forms of each protein. The data results with the unphosphorylated form of the protein are not discussed here. The data discussed with respect to the phosphorylated protein are representative of at least three independent experiments and are normalized to the unphosphylated forms (internal control).

ERKs = assay: Western blot of phosphorylated signaling mediators; assay type: cell-based; conditions: adult neural progenitor cells; negative controls show the same results
Protocol: as §1

AKT = assay: Western blot of phosphorylated signaling mediators; assay type: cell-based; conditions: 5 mM apigenin; by six hours; adult neural progenitor cells starved two hours; normalized to unphosphorylated form
Protocol: as §1

GSK3b = assay: Western blot of phosphorylated signaling mediators; assay type: cell-based; conditions: adult neural progenitor cells; negative controls show the same results
Protocol: as §1

CREB = assay: Western blot of phosphorylated signaling mediators; assay type: cell-based; conditions: adult neural progenitor cells; negative controls show the same results
Protocol: as §1

- NeuroD-activation (luciferase) as compared to activation by RA+FSK (NeuroD): two-fold higher
SMILES: O=c1cc(-c2ccc(O)cc2)oc2cc(O)cc(O)c12 [apigenin]
- difference between injection groups during novel testing (mice; 25 mg/kg i.p. for 7 days vs Tween 80:0.9% NaCl control): No significant differences
- preference for the novel object (object exploration time) (mice; 25 mg/kg i.p. for 7 days, T-test t=0.0008): significant preference for the novel object
- number of dividing cells (BrdU+) in the dentate gyrus (dentate gyrus [1]; non-runners, vs control non-runners and apigenin 12.5 mg/kg non-runners, p<0.01): significant increase in the number of dividing cells
- number of dividing cells (BrdU+) in the dentate gyrus (dentate gyrus [1]; runners, vs running control, p<0.05): significantly more dividing cells
- number of dividing cells (BrdU+) in the dentate gyrus, overall statement (dentate gyrus [1]): increases
- number of dividing cells (BrdU+) in the dentate gyrus, overall statement (dentate gyrus [1]; listed as Apigenin): increased BrdU labeling in both running and non-running groups
- number of BrdU+ cells co-labeled with NeuN (new neurons) in the dentate gyrus (dentate gyrus [2]): significantly higher number of new neurons than all other mice in the study
- number of BrdU+ cells co-labeled with NeuN (new neurons) in the dentate gyrus (dentate gyrus [2]; listed as Apigenin): significantly more new neurons than all other groups; also recorded: greatest increase in neurogenesis
- differentiation of the dividing cells into neurons (dentate gyrus [2]; overall statement): increases
- phosphorylation of b-catenin (b-catenin): non-specific effects
- phosphorylation of ERKs (ERKs): non-specific effects
- phosphorylation of AKT (pAKT) (AKT): increased phosphorylation of AKT
- phosphorylation of GSK3b (GSK3b): non-specific effects
- phosphorylation of CREB (CREB): non-specific effects

From patent US20080227829A1, “Neurogenic compounds” (priority 2007, published 2008)
